Measurements as given in the supplement of paper PMC11451515.

What was measured:
Conditions in all cases: 48 h
NOMO1 [1] = assay: AUC of viability dose-response curve (% viability x log10 dose units); higher = less sensitive
Procedure, shortened: (§1)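 In 1536-well plates, leukemia cells adapted to each medium (500 or 1000 cells/well) were exposed for 48 h at 37°C to library compounds in DMSO across 11 threefold doses, 47 μM down to 0.79 nM. Viability was read by CellTiter-Glo One luminescence and normalised per plate to DMSO and cell-free wells. A four-parameter log-logistic fit over log10 doses was integrated by trapezoidal rule. This yielded the area under the curve, with over-full-viability curves scaled and quality-control failures dropped.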

P12-Ichikawa [2] = assay: as above
Procedure, shortened: as §1

SEM cells [3] = assay: as above
Procedure, shortened: as §1

NOMO1 [4] = assay: cell viability relative to DMSO control; higher = less cytotoxic
Procedure, shortened: (§2)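 Before seeding, each leukemia line was adapted for at least four passages in each medium. NOMO1 or SEM cells (500 cells/well) and P12-Ichikawa cells (1000 cells/well) went into 1536-well plates at 5 μl, then received library compounds in DMSO by pin dosing across 11 threefold concentrations, 47 μM to 0.79 nM. Readout was CellTiter-Glo One luminescence after 48 h at 37°C, and viability is given as a per-plate percentage of DMSO wells, with cell-free wells as background.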

P12-Ichikawa [5] = assay: as above
Procedure, shortened: as §2

SEM cells [6] = assay: as above
Procedure, shortened: as §2

CCNC(=O)CCC/C=C\C[C@@H]1[C@@H](/C=C/C(O)CCc2ccccc2)[C@@H](O)C[C@@H]1O (stereo partly drawn)
AUC of viability dose-response curve
Conditions	NOMO1 [1]	P12-Ichikawa [2]	SEM cells [3]
HPLM + 10% dialyzed FBS	460	448	466
RPMI 5 mM glucose + 10% FBS	456	453	473
RPMI 5 mM glucose + 10% dialyzed FBS	459	431	461

cell viability [%]
Conditions	NOMO1 [4]	P12-Ichikawa [5]	SEM cells [6]
HPLM + 10% dialyzed FBS, 0.000781 µM	104	117	96.2
HPLM + 10% dialyzed FBS, 0.00234 µM	108	121	116
HPLM + 10% dialyzed FBS, 0.00702 µM	106	111	100
HPLM + 10% dialyzed FBS, 0.0211 µM	131	111	98.8
HPLM + 10% dialyzed FBS, 0.0632 µM	112	116	115
HPLM + 10% dialyzed FBS, 0.19 µM	130	114	104
HPLM + 10% dialyzed FBS, 0.569 µM	103	111	104
HPLM + 10% dialyzed FBS, 1.71 µM	116	114	108
HPLM + 10% dialyzed FBS, 5.12 µM	105	105	108
HPLM + 10% dialyzed FBS, 15.4 µM	110	106	91.2
HPLM + 10% dialyzed FBS, 46.1 µM	39.5	99.7	87.4
RPMI 5 mM glucose + 10% FBS, 0.000781 µM	116	109	95.4
RPMI 5 mM glucose + 10% FBS, 0.00234 µM	118	125	112
RPMI 5 mM glucose + 10% FBS, 0.00702 µM	124	109	110
RPMI 5 mM glucose + 10% FBS, 0.0211 µM	106	130	98.7
RPMI 5 mM glucose + 10% FBS, 0.0632 µM	108	122	118
RPMI 5 mM glucose + 10% FBS, 0.19 µM	105	109	111
RPMI 5 mM glucose + 10% FBS, 0.569 µM	113	111	117
RPMI 5 mM glucose + 10% FBS, 1.71 µM	120	112	118
RPMI 5 mM glucose + 10% FBS, 5.12 µM	118	109	111
RPMI 5 mM glucose + 10% FBS, 15.4 µM	102	103	98.2
RPMI 5 mM glucose + 10% FBS, 46.1 µM	38	95	100
RPMI 5 mM glucose + 10% dialyzed FBS, 0.000781 µM	113	121	89.6
RPMI 5 mM glucose + 10% dialyzed FBS, 0.00234 µM	121	120	117
RPMI 5 mM glucose + 10% dialyzed FBS, 0.00702 µM	106	127	128
RPMI 5 mM glucose + 10% dialyzed FBS, 0.0211 µM	116	111	107
RPMI 5 mM glucose + 10% dialyzed FBS, 0.0632 µM	114	110	120
RPMI 5 mM glucose + 10% dialyzed FBS, 0.19 µM	105	105	109
RPMI 5 mM glucose + 10% dialyzed FBS, 0.569 µM	120	116	102
RPMI 5 mM glucose + 10% dialyzed FBS, 1.71 µM	105	106	106
RPMI 5 mM glucose + 10% dialyzed FBS, 5.12 µM	118	111	114
RPMI 5 mM glucose + 10% dialyzed FBS, 15.4 µM	111	97.3	107
RPMI 5 mM glucose + 10% dialyzed FBS, 46.1 µM	32.3	86.6	81.3
